This is an account of results in ChEMBL document CHEMBL1201862, “PubChem BioAssay data set” (2004).

SMILES strings stand for the structures. The source made the active and inactive calls.

One assay has as its target Bcl-2-like protein 1 (Homo sapiens, UniProt Q07817). Put plainly: BCL-XL inhibitors, dose response, selectivity assay for MCL1 inhibitor project, biochemical, fluorescence polarization, 1536-well (AID 2218). For orientation: In fluorescence polarisation assays a small probe gives low polarisation when free and higher when bound to something large.
Assay [1] deals with T1, Induced myeloid leukemia cell differentiation protein Mcl-1 (Homo sapiens, UniProt Q07820). It is filed as functional.
For assay [2], the target named is T1, Induced myeloid leukemia cell differentiation protein Mcl-1. The assay can be described thus: MCL1-BIM BH3 interaction inhibitors, dose response, biochemical, fluorescence polarization, BIM-BH3 peptide, 1536-well (AID 2217).
Another assay concerns the target NADPH oxidase 1 (Homo sapiens, UniProt Q9Y5S8). It is filed as functional, cell-based.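 Further: Cell-based assay with luminescence read-out, IC50 derived from inhibitor dose-response curves; intracellular ROS from endogenous NOX1 in intact HT29 colon cancer cells; potency of inhibitors that lower the ROS luminescence signal.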
In assay [3] the target is T2, Bcl-2-related protein A1 (Mus musculus, UniProt Q07440).
T2 sequence (Q07440 whole entry): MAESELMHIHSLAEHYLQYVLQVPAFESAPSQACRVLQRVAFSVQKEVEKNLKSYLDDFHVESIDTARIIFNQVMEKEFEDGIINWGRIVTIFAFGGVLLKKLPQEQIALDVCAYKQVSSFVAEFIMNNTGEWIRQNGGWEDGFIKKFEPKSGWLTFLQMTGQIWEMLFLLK
Put plainly: Bfl-1 binding inhibitors, SAR follow-up, biochemical, fluorescence polarization (AID 1070).

For assay [4], the target named is Glyceraldehyde-3-phosphate dehydrogenase (Homo sapiens, UniProt P04406).
Assay [5] has as its target T2, Bcl-2-related protein A1. Put plainly: Bfl-1 inhibitors blocking BH3 peptide binding, confirmation, biochemical, TR-FRET, mouse Bfl-1 (AID 621).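 Further: TR-FRET binding of GST-Bfl-1 to FITC-labelled Bid peptide via terbium antibody.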
In the next assay the test system is Vero. Put plainly: West Nile virus antiviral activity, cell-based, CPE readout (AID 1621). The class given is functional. The following applies: Chlorocebus sabaeus.
The target in assay [6] is Diphosphomevalonate decarboxylase (Streptococcus pneumoniae serotype 2 (strain D39 / NCTC 7466), UniProt Q9FD53). Put plainly: S. pneumoniae DPM-DC inhibition retest, confirmation, biochemical, cuvette format, coupled NADH fluorescence (AID 1028). The class given is functional.
The target of assay [7] is Lysine-specific demethylase 4C (Homo sapiens, UniProt Q9H3R0). Put plainly: GASC-1 (JMJD2C) histone demethylase inhibitors, dose response, biochemical, DELFIA europium, cherry-picked samples (AID 488835). The class given is functional.
Assay [8] addresses Mothers against decapentaplegic homolog 3 (Homo sapiens, UniProt P84022). Put plainly: SMAD3 transcription factor inhibitors, dose response (AID 715). The class given is functional.
The target of assay [9] is Tyrosyl-DNA phosphodiesterase 2 (Homo sapiens, UniProt O95551). The assay can be described thus: human TDP2 enzyme inhibitors, dose response, biochemical, epi absorbance, IC50 (AID 743297).
Another assay deals with T3, Protein RecA (Mycobacterium tuberculosis, UniProt P9WHJ3).
T3 sequence (P9WHJ3 whole entry): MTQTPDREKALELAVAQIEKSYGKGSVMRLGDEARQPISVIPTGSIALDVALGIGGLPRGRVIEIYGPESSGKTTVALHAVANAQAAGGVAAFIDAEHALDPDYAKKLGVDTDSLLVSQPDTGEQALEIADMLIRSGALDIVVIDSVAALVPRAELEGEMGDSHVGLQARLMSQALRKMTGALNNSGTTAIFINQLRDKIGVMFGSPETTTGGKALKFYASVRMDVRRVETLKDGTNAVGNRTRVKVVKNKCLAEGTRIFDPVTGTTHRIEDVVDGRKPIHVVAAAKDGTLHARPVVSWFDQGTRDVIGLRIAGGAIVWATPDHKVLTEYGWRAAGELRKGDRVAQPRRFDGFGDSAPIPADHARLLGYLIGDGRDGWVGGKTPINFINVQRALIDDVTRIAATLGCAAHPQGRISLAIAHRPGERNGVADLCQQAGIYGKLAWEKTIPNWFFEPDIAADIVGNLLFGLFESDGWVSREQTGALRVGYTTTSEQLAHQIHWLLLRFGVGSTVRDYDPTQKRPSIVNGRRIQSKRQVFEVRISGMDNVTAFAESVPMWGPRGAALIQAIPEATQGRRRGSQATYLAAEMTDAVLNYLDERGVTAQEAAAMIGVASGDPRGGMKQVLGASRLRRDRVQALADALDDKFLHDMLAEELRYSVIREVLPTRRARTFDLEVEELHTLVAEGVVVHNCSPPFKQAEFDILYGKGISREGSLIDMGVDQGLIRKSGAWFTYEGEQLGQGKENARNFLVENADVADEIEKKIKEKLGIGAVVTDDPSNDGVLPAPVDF
Put plainly: Fluorescence Cell-Free Homogeneous Dose Retest to Identify Inhibitors of RecA-Intein Splicing Activity. [Related pubchem assays (depositor defined):AID2097, AID2223, AID489010, AID492950]. The class given is functional.

In assay [10] the target is T4, Replicative DNA helicase DnaB (Mycobacterium tuberculosis, UniProt P9WMR3).
T4 sequence (P9WMR3 whole entry): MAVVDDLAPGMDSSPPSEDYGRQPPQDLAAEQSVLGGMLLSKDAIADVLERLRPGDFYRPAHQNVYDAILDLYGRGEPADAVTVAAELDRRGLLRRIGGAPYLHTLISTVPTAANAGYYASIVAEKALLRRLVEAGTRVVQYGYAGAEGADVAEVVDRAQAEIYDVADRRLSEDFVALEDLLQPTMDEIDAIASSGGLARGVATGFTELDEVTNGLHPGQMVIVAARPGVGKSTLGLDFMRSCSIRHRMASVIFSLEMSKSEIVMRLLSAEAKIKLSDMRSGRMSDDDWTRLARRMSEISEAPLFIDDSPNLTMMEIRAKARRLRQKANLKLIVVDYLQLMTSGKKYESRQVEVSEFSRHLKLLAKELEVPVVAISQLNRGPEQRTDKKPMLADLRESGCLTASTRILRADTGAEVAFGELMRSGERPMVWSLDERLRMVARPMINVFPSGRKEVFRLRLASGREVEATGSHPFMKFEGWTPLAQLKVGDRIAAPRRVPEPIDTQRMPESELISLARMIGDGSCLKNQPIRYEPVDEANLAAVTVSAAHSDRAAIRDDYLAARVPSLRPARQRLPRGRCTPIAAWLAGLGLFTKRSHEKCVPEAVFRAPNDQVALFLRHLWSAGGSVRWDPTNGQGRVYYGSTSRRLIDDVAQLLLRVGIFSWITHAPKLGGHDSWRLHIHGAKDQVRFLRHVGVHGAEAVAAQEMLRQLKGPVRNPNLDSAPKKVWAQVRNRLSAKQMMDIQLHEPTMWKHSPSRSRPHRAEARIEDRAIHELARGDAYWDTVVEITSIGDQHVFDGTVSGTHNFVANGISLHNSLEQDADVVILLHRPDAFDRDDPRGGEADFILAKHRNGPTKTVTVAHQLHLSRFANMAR
The assay can be described thus: DnaB intein splicing inhibitors, dose response, biochemical, cell-free fluorescence (AID 449749). The class given is functional.

T1 sequence (Q07820 whole entry): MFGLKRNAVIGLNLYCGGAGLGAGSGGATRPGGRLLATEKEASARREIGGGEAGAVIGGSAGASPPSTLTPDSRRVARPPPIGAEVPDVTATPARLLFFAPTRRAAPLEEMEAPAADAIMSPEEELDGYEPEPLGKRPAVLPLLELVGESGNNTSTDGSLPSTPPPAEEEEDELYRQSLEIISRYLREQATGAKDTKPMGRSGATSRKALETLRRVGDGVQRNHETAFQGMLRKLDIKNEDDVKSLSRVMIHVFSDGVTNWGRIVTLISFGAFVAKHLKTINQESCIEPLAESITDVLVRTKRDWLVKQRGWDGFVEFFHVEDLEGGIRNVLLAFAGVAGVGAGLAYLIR
Sequence of Diphosphomevalonate decarboxylase (Q9FD53 whole entry): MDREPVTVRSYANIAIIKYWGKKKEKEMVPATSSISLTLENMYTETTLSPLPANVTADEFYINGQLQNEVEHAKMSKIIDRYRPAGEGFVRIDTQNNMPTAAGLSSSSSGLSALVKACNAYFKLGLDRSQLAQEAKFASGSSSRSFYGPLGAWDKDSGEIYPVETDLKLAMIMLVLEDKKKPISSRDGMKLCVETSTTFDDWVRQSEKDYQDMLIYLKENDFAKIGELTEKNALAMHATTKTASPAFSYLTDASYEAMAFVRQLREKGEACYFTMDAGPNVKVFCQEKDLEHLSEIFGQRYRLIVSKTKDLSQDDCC
Sequence of Bcl-2-like protein 1 (Q07817 whole entry): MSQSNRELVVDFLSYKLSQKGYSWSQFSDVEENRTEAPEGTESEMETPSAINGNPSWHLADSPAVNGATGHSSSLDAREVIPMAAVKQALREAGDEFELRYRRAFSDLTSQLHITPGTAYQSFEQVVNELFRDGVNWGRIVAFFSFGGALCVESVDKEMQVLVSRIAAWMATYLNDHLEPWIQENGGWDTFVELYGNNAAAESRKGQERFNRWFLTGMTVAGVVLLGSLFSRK
Sequence of Glyceraldehyde-3-phosphate dehydrogenase (P04406 whole entry): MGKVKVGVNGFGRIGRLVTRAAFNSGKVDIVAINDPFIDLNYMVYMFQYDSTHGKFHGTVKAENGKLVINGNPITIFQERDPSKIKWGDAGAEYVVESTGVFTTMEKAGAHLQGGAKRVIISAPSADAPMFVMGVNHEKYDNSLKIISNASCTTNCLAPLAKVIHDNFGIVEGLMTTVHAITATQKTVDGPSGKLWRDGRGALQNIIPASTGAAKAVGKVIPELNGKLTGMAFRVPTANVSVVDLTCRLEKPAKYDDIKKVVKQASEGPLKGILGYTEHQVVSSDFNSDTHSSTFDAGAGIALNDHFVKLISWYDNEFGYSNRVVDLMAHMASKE
Sequence of NADPH oxidase 1 (Q9Y5S8 whole entry): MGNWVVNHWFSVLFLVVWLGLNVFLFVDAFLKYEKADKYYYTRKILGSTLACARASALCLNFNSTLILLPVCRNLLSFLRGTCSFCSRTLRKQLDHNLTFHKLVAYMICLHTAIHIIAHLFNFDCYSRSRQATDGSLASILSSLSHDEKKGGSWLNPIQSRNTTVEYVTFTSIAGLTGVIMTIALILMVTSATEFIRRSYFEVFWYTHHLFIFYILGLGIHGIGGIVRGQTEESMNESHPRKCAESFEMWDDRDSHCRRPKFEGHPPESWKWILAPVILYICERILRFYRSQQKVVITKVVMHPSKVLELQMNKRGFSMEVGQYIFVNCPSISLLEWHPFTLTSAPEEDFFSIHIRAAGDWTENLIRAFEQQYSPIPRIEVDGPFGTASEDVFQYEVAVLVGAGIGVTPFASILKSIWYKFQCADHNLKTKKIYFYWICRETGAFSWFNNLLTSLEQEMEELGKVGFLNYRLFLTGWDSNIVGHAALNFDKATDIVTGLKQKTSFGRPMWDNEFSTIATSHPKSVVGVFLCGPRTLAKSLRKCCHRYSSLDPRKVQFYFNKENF
Sequence of Lysine-specific demethylase 4C (Q9H3R0 whole entry): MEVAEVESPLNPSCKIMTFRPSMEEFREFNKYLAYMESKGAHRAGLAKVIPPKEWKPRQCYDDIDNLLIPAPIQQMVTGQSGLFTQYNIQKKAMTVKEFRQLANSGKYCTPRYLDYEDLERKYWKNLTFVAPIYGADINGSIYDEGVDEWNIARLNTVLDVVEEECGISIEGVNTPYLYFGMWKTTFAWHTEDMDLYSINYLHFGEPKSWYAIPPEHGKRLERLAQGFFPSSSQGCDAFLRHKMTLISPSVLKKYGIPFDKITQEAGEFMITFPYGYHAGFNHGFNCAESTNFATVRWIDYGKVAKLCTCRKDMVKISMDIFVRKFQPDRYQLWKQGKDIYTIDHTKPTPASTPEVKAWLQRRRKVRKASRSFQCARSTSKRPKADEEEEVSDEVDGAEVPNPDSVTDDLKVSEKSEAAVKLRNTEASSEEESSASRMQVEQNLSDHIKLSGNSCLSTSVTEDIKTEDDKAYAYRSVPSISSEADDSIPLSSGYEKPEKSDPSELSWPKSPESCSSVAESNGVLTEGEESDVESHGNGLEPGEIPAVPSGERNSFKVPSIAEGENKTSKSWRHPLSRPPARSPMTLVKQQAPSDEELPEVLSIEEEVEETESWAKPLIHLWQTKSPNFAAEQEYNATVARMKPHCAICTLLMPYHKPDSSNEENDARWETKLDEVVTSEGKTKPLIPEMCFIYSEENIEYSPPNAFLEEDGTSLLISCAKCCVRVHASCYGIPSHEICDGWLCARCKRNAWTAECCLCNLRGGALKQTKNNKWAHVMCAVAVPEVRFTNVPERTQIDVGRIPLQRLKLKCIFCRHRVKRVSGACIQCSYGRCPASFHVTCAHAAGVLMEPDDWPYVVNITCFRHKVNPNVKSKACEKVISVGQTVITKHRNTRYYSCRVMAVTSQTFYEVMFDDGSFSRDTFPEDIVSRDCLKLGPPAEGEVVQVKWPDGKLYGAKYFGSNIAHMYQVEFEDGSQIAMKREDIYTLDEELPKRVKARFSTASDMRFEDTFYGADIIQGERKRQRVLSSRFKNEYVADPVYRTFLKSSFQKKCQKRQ
Sequence of Mothers against decapentaplegic homolog 3 (P84022 whole entry): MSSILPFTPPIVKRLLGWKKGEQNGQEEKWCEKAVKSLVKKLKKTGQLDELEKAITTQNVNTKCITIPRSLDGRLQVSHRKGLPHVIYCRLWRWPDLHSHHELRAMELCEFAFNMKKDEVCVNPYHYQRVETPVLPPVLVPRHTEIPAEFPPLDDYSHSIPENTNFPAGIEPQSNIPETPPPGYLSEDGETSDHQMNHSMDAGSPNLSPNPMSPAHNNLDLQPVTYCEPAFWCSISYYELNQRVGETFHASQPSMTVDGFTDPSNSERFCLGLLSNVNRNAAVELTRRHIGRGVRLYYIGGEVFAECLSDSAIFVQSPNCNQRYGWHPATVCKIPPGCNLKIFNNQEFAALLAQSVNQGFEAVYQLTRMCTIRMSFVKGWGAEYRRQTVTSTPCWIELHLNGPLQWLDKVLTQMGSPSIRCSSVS
Sequence of Tyrosyl-DNA phosphodiesterase 2 (O95551 whole entry): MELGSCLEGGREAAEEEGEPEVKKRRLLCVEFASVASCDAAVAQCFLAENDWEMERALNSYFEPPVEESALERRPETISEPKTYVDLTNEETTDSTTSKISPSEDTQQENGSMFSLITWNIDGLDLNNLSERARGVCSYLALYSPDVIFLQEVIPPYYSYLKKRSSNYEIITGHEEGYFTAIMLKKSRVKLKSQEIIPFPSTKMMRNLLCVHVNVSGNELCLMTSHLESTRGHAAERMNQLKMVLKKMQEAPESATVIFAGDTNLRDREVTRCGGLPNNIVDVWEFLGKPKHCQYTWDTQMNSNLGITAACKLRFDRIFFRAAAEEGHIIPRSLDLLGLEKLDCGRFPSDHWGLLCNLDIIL

One may read the IC50 as the point on the concentration scale where inhibition reaches its midpoint. Turning to `Nc1nc(S)c2ncn(C3OC(CO)C(O)C3O)c2n1` (centres undefined), the IC50 against Bcl-2-like protein 1 is 34 µM (not active); in assay [1], 7.34 µM (active); in assay [2], 4.94 µM (active).
As to `O=C(O)c1sc2ccccc2c1Cl`, at NADPH oxidase 1, the IC50 is > 17 µM (not active).
For the compound `O=C1C(Cl)=C(Cl)C(=O)N1c1cc(Cl)cc(Cl)c1`, the IC50 was 1.42 µM (active) at Bcl-2-related protein A1 [3], > 100 µM (not active) in assay [4] and 2.07 µM (active) on Bcl-2-related protein A1 [5].
Consider `Cc1ccc(-c2cc(C(=O)NCCCN3CCCC3)c3ccccc3n2)cc1C`, for which, in the assay on Vero, the IC50 was 21.8 µM (active).
As to `O=C(c1cccc(-n2sc3ccccc3c2=O)c1)N1CCCC1`, in [6], the IC50 is 16.5 µM (active).
One may read the AC50 as the midpoint of the concentration-response curve, whichever way the signal moves. A word on the EC50: it is the concentration needed to bring the measured effect to its halfway point. Consider `CC1(C)CC(=O)C(C2(O)C(=O)NC(=O)NC2=O)=C(O)C1`, for which the AC50 in assay [7] is 5.57 µM (active); in [10], 1.23 µM (active). Besides, the IC50 in assay [8] was 2.3 µM (active); in [9], 14.5 µM (inactive). Further, on Protein RecA, the EC50 was 2.23 µM (active).
